Key:
Type in all cases: in vivo
[1] = test system: redroot pigweed (Amaranthus retroflexus, AMARE); assay: Post-emerge test, greenhouse herbicide activity screening; conditions: phytotoxicity rating 0-100 (0 no damage, 100 complete death), 14 days after application
Outline: (§1)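 Each test used a mechanized track sprayer delivering 187 l/ha of acetone solution at 15–1000 g ai/ha. Post-emerge foliage at 2–3 leaves was treated with added 0.25% v/v non-ionic surfactant and bottom-watered only. Injury was assessed on day 14, where 100 means total kill.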

[2] = test system: barnyardgrass (Echinochloa crus-galli, ECHCG); assay: as above; conditions: phytotoxicity rating 0-100 (0 no damage, 100 complete death), 14 days after application
Outline: as §1

[3] = test system: velvetleaf (Abutilon theophrasti, ABUTH); assay: as above; conditions: phytotoxicity rating 0-100 (0 no damage, 100 complete death), 14 days after application
Outline: as §1

[4] = test system: ivyleaf morningglory (Ipomoea hederacea, IPOHE); assay: as above; conditions: phytotoxicity rating 0-100 (0 no damage, 100 complete death), 14 days after application
Outline: as §1

[5] = test system: green foxtail (Setaria viridis, SETVI); assay: as above; conditions: phytotoxicity rating 0-100 (0 no damage, 100 complete death), 14 days after application
Outline: as §1

[6] = test system: lambsquarters (Chenopodium album, CHEAL); assay: as above; conditions: phytotoxicity rating 0-100 (0 no damage, 100 complete death), 14 days after application
Outline: as §1

[7] = test system: sicklepod (Cassia obtusifolia, CASOB); assay: as above; conditions: phytotoxicity rating 0-100 (0 no damage, 100 complete death), 14 days after application
Outline: as §1

[8] = test system: johnsongrass (Sorghum halepense, SORHA); assay: as above; conditions: phytotoxicity rating 0-100 (0 no damage, 100 complete death), 14 days after application
Outline: as §1

[9] = test system: large crabgrass (Digitaria sanguinalis, DIGSA); assay: as above; conditions: phytotoxicity rating 0-100 (0 no damage, 100 complete death), 14 days after application
Outline: as §1

[10] = test system: barnyardgrass (Echinochloa crus-galli, ECHCG); assay: Pre-emerge test, greenhouse herbicide activity screening; conditions: pre-emerge, rated 14 days after application, 0 = no damage, 100 = complete death
Outline: (§2)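 Sandy loam pots; pre-emerge: sown 1 d pre-spray, surface-watered after, then bottom-watered. Post-emerge: sown 8–21 d before, 2–3 leaf stage, + 0.25% v/v NIS, bottom-watered. Acetone, 187 l/ha track spray, 15–1000 g ai/ha. 0–100 injury score, day 14.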

[11] = test system: velvetleaf (Abutilon theophrasti, ABUTH); assay: as above; conditions: pre-emerge, rated 14 days after application, 0 = no damage, 100 = complete death
Outline: as §2

[12] = test system: common ragweed (Ambrosia artemisizfolia L., AMBEL); assay: as above; conditions: pre-emerge, rated 14 days after application, 0 = no damage, 100 = complete death
Outline: as §2

[13] = test system: ivyleaf morningglory (Ipomoea hederacea, IPOHE); assay: as above; conditions: pre-emerge, rated 14 days after application, 0 = no damage, 100 = complete death
Outline: as §2

[14] = test system: green foxtail (Setaria viridis, SETVI); assay: as above; conditions: pre-emerge, rated 14 days after application, 0 = no damage, 100 = complete death
Outline: as §2

[15] = test system: lambsquarters (Chenopodium album, CHEAL); assay: as above; conditions: pre-emerge, rated 14 days after application, 0 = no damage, 100 = complete death
Outline: as §2

[16] = test system: sicklepod (Cassia obtusifolia, CASOB); assay: as above; conditions: pre-emerge, rated 14 days after application, 0 = no damage, 100 = complete death
Outline: as §2

[17] = test system: johnsongrass (Sorghum halepense, SORHA); assay: as above; conditions: pre-emerge, rated 14 days after application, 0 = no damage, 100 = complete death
Outline: as §2

[18] = test system: large crabgrass (Digitaria sanguinalis, DIGSA); assay: as above; conditions: pre-emerge, rated 14 days after application, 0 = no damage, 100 = complete death
Outline: as §2

[19] = test system: field corn (Zea mays L., var. Dekalb 535, CORN); assay: Pre-emerge test, crop safety; conditions: pre-emerge, rated 14 days after application, 0 = no damage, 100 = complete death
Outline: (§3)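 Fourteen days after spraying, crop and weed injury was graded visually from 0, no effect, to 100, every plant dead. Test substances were dissolved in acetone and applied at 15–1000 g ai/ha with a flat-fan nozzle. Application was either pre-emergence, one day after sowing, or post-emergence at the 2–3 leaf stage.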

[20] = test system: upland rice (Oryza sp., var. Tebonnet, RICE); assay: Pre-emerge test, crop safety; conditions: pre-emerge, rated 14 days after application, 0 = no damage, 100 = complete death
Outline: as §3

[21] = test system: field corn (Zea mays L., var. Dekalb 535, CORN); assay: Post-emerge test, crop safety; conditions: phytotoxicity rating 0-100 (0 no damage, 100 complete death), 14 days after application
Outline: as §2

[22] = test system: upland rice (Oryza sp., var. Tebonnet, RICE); assay: Post-emerge test, crop safety; conditions: phytotoxicity rating 0-100 (0 no damage, 100 complete death), 14 days after application
Outline: as §2

[23] = test system: redroot pigweed (Amaranthus retroflexus, AMARE); assay: Pre-emerge test, greenhouse herbicide activity screening; conditions: pre-emerge, rated 14 days after application, 0 = no damage, 100 = complete death
Outline: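 Compounds in acetone were track-sprayed at 15-1000 g ai/ha (187 l/ha) on sandy loam pots: pre-emerge one day after seeding, post-emerge at 2-3 leaf stage with 0.25% v/v non-ionic surfactant. Phytotoxicity was rated 14 days later on a 0 (no damage) to 100 (complete death) scale.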

CCOC(=O)C(C)Nc1cc(OC(F)F)cc(F)c1-n1c(=O)cc(C(F)(F)F)n(C)c1=O (stereo not shown) [Compound 1-53]
0: Post-emerge Herbicidal Activity ECHCG ([2]; 63 g ai/ha) | Post-emerge Herbicidal Activity SETVI ([5]; 63 g ai/ha) | Post-emerge Herbicidal Activity SORHA ([8]; 63 g ai/ha) | Post-emerge Herbicidal Activity DIGSA ([9]; 63 g ai/ha) | Pre-emerge Herbicidal Activity ECHCG (phytotoxicity rating, scale 0-100) ([10]; 63 g ai/ha) | Pre-emerge Herbicidal Activity CASOB (phytotoxicity rating, scale 0-100) ([16]; 63 g ai/ha) | Post-emerge Herbicidal Activity CORN (crop damage) ([21]; 63 g ai/ha)
95: Post-emerge Herbicidal Activity IPOHE ([4]; 63 g ai/ha) | Post-emerge Herbicidal Activity CASOB ([7]; 250 g ai/ha) | Pre-emerge Herbicidal Activity IPOHE (phytotoxicity rating, scale 0-100) ([13]; 250 g ai/ha) | Pre-emerge Herbicidal Activity SETVI (phytotoxicity rating, scale 0-100) ([14]; 250 g ai/ha) | Pre-emerge crop damage CORN (phytotoxicity rating, scale 0-100) ([19]; 63 g ai/ha)
40: Post-emerge Herbicidal Activity SORHA ([8]; 250 g ai/ha) | Pre-emerge Herbicidal Activity DIGSA (phytotoxicity rating, scale 0-100) ([18]; 63 g ai/ha)
50: Post-emerge Herbicidal Activity ECHCG ([2]; 250 g ai/ha) | Post-emerge Herbicidal Activity CHEAL ([6]; 63 g ai/ha) | Post-emerge Herbicidal Activity DIGSA ([9]; 250 g ai/ha) | Pre-emerge Herbicidal Activity AMBEL (phytotoxicity rating, scale 0-100) ([12]; 63 g ai/ha) | Pre-emerge Herbicidal Activity IPOHE (phytotoxicity rating, scale 0-100) ([13]; 63 g ai/ha) | Pre-emerge Herbicidal Activity SETVI (phytotoxicity rating, scale 0-100) ([14]; 63 g ai/ha) | Pre-emerge Herbicidal Activity CASOB (phytotoxicity rating, scale 0-100) ([16]; 250 g ai/ha) | Pre-emerge Herbicidal Activity SORHA (phytotoxicity rating, scale 0-100) ([17]; 63 g ai/ha) | Pre-emerge crop damage RICE (phytotoxicity rating, scale 0-100) ([20]; 63 g ai/ha)
60: Post-emerge Herbicidal Activity CASOB ([7]; 63 g ai/ha) | Post-emerge Herbicidal Activity RICE (crop damage) ([22]; 250 g ai/ha)
90: Pre-emerge Herbicidal Activity AMBEL (phytotoxicity rating, scale 0-100) ([12]; 250 g ai/ha) | Pre-emerge Herbicidal Activity SORHA (phytotoxicity rating, scale 0-100) ([17]; 250 g ai/ha) | Pre-emerge Herbicidal Activity DIGSA (phytotoxicity rating, scale 0-100) ([18]; 250 g ai/ha) | Pre-emerge crop damage RICE (phytotoxicity rating, scale 0-100) ([20]; 250 g ai/ha)
30: Post-emerge Herbicidal Activity CORN (crop damage) ([21]; 250 g ai/ha)
10: Post-emerge Herbicidal Activity RICE (crop damage) ([22]; 63 g ai/ha)
100: Post-emerge Herbicidal Activity AMARE ([1]; 250 g ai/ha) | Post-emerge Herbicidal Activity ABUTH ([3]; 63 g ai/ha) | Post-emerge Herbicidal Activity ABUTH ([3]; 250 g ai/ha) | Post-emerge Herbicidal Activity IPOHE ([4]; 250 g ai/ha) | Post-emerge Herbicidal Activity CHEAL ([6]; 250 g ai/ha) | Pre-emerge Herbicidal Activity ABUTH (phytotoxicity rating, scale 0-100) ([11]; 63 g ai/ha) | Pre-emerge Herbicidal Activity ABUTH (phytotoxicity rating, scale 0-100) ([11]; 250 g ai/ha) | Pre-emerge Herbicidal Activity CHEAL (phytotoxicity rating, scale 0-100) ([15]; 63 g ai/ha) | Pre-emerge Herbicidal Activity CHEAL (phytotoxicity rating, scale 0-100) ([15]; 250 g ai/ha) | Pre-emerge crop damage CORN (phytotoxicity rating, scale 0-100) ([19]; 250 g ai/ha) | Pre-emerge Herbicidal Activity AMARE (phytotoxicity rating, scale 0-100) ([23]; 63 g ai/ha) | Pre-emerge Herbicidal Activity AMARE (phytotoxicity rating, scale 0-100) ([23]; 250 g ai/ha)
80: Post-emerge Herbicidal Activity AMARE ([1]; 63 g ai/ha) | Post-emerge Herbicidal Activity SETVI ([5]; 250 g ai/ha) | Pre-emerge Herbicidal Activity ECHCG (phytotoxicity rating, scale 0-100) ([10]; 250 g ai/ha)
